According to US20100093760A1, “METHODS FOR IDENTIFYING COMPOUNDS THAT MODULATE CELL SIGNALING AND METHODS EMPLOYING SUCH COMPOUNDS” (The General Hospital Corporation, priority 2006, published 2010):
“Also recorded” adds a separate entry of the source. Where two headings read alike, the source gives them in different places.

Experiments:
[1] = system: zebrafish embryos (eve1, pax2.1, krox20, MyoD); experiment: Wholemount zebrafish in situ hybridization of dorsal and ventral markers; assay type: in vivo
Experimental: In situ hybridization was performed as previously described (Westerfield, The Zebrafish Book, (University of Oregon Press, Eugene, Oreg., 1993)). Zebrafish krox20, pax2.1, and MyoD probes were produced as previously described (Weinberg et al., Development 122:271-280, 1996).

[2] = system: zebrafish embryos; assay type: in vivo; conditions: for Mild % / Mild dorsalization, number of embryos / Moderate % / Moderate dorsalization, number of embryos / Normal % / Normal, number of embryos / Severe % / Severe dorsalization, number of embryos / % Mild / % Moderate-Severe / Mild, number of embryos / Moderate-Severe, number of embryos / Total % Dorsalized: scored at 48 hpf
[3] = target: AMP kinase; conditions: Zhou et al. 2001; cited from earlier work
[4] = 6-somite stage, treatment at 1 hpf
[5] = 10 μM, continuous exposure from 2 hpf
[6] = 10 μM, continuous exposure from 4 hpf
[7] = 10 μM, continuous exposure from 6 hpf
[8] = 10 μM, continuous exposure from 8 hpf
[9] = 10 μM, continuous exposure from 10 hpf
[10] = 10 μM, interval exposure 2-4 hpf
[11] = 10 μM, interval exposure 2-6 hpf
[12] = 10 μM, interval exposure 2-8 hpf
[13] = 10 μM, interval exposure 4-8 hpf
[14] = 10 μM, interval exposure 6-8 hpf
[15] = dorsomorphin 10 μM, treatment at 3 hpf

With `c1cc(-c2cnn3cc(-c4ccc(OCCN5CCCCC5)cc4)cnc23)ccn1` [Compound C/Dorsomorphin] the “expression of Krox20 (rhombomeres 3 and 5) and MyoD” value [1, 4] was “induced lateral expansion; also recorded: expand laterally”, the “expression of dorsal marker pax2.1” value [1, 4] was “induced expansion; also recorded: expands laterally” and the “expression of ventral marker eve1” value ([1]; 18-somite stage, 10 μM at 1 hpf) was “reduced; also recorded: do not exhibit eve1 expression in the distal tail”. The toxicity ([2]; 10 μM) was “No toxicity was observed”, the Mild % [2, 5] was 0% and the “Mild dorsalization, number of embryos” value [2, 5] was 0. The Moderate % [2, 5] was 0%, the “Moderate dorsalization, number of embryos” value (“Moderate dorsalization” for short) [2, 5] was 0 and the Normal % [2, 5] was 0%. The “Normal, number of embryos” value [2, 5] was 0, the Severe % [2, 5] was 100% and the “Severe dorsalization, number of embryos” value [2, 5] was 20. For the same molecule, the Mild % [2, 6] was 0%, the “Mild dorsalization, number of embryos” value [2, 6] was 0 and the Moderate % [2, 6] was 100%. For the same molecule, the “Moderate dorsalization” value [2, 6] was 19, the Normal % [2, 6] was 0% and the “Normal, number of embryos” value [2, 6] was 0. For the same molecule, the Severe % [2, 6] was 0%, the “Severe dorsalization, number of embryos” value [2, 6] was 0 and the Mild % [2, 7] was 22%. For the same molecule, the “Mild dorsalization, number of embryos” value [2, 7] was 4, the Moderate % [2, 7] was 78% and the “Moderate dorsalization” value [2, 7] was 14. For the same molecule, the Normal % [2, 7] was 0%, the “Normal, number of embryos” value [2, 7] was 0 and the Severe % [2, 7] was 0%. For the same molecule, the “Severe dorsalization, number of embryos” value [2, 7] was 0, the Mild % [2, 8] was 85% and the “Mild dorsalization, number of embryos” value [2, 8] was 17. The “Moderate dorsalization” value [2, 8] was 0, the “Normal, number of embryos” value [2, 8] was 3 and the Severe % [2, 8] was 0%. For the same molecule, the “Severe dorsalization, number of embryos” value [2, 8] was 0, the Mild % [2, 9] was 0% and the “Mild dorsalization, number of embryos” value [2, 9] was 0. For the same molecule, the Moderate % [2, 9] was 0%, the “Moderate dorsalization” value [2, 9] was 0 and the Normal % [2, 9] was 100%. For the same molecule, the “Normal, number of embryos” value [2, 9] was 20, the Severe % [2, 9] was 0% and the “Severe dorsalization, number of embryos” value [2, 9] was 0. For the same molecule, the dorsalization phenotype ([2]; 10 μM, continuous from 2 hpf) was “severe dorsalization with high penetrance”, the dorsalization phenotype ([2]; 10 μM, exposure from 4-8 and 6-8 hpf) was “mild to moderate dorsalization” and the Mild % [2, 10] was 10%. The “Mild dorsalization, number of embryos” value [2, 10] was 2, the Moderate % [2, 10] was 90% and the “Moderate dorsalization” value [2, 10] was 18. For the same molecule, the Normal % [2, 10] was 0%, the “Normal, number of embryos” value [2, 10] was 0 and the “Severe dorsalization, number of embryos” value [2, 10] was 0. For the same molecule, the Mild % [2, 11] was 17%, the “Mild dorsalization, number of embryos” value [2, 11] was 3 and the Moderate % [2, 11] was 44%. For the same molecule, the “Moderate dorsalization” value [2, 11] was 8, the Normal % [2, 11] was 0% and the “Normal, number of embryos” value [2, 11] was 0. The Severe % [2, 11] was 39%, the “Severe dorsalization, number of embryos” value [2, 11] was 7 and the Mild % [2, 12] was 0%. The “Mild dorsalization, number of embryos” value [2, 12] was 0, the Moderate % [2, 12] was 0% and the “Moderate dorsalization” value [2, 12] was 0. For the same molecule, the Normal % [2, 12] was 0%, the “Normal, number of embryos” value [2, 12] was 0 and the Severe % [2, 12] was 100%. The “Severe dorsalization, number of embryos” value [2, 12] was 20, the Mild % [2, 13] was 65% and the “Mild dorsalization, number of embryos” value [2, 13] was 15. For the same molecule, the Moderate % [2, 13] was 35%, the Normal % [2, 13] was 0% and the “Normal, number of embryos” value [2, 13] was 0. For the same molecule, the Severe % [2, 13] was 0%, the “Severe dorsalization, number of embryos” value [2, 13] was 0 and the Mild % [2, 14] was 95%. The “Mild dorsalization, number of embryos” value [2, 14] was 19, the Moderate % [2, 14] was 5% and the “Moderate dorsalization” value [2, 14] was 1. For the same molecule, the Normal % [2, 14] was 0%, the “Normal, number of embryos” value [2, 14] was 0 and the Severe % [2, 14] was 0%. For the same molecule, the “Severe dorsalization, number of embryos” value [2, 14] was 0, the dorsalization phenotype ([2]; 10 μM, treated at 2-4 hpf) was “severe dorsalization defects” and the dorsalization phenotype ([2]; 10 μM, treated at 6-8 hpf) was “mild dorsalization”. The dorsalization phenotype ([2]; 10 μM, treatment at 10 hpf and beyond) was “did not induce dorsalization”, the nonspecific toxicity ([2]; 5-20 uM) was “absence of other nonspecific toxicity” and the dorsalization phenotype ([2]; 5 to 10 μM from 3 hpf) was “progressively more severe dorsalization in a progressively higher percentage of embryos”. The dorsalization phenotype ([2]; 10 (unit not given) from 3 hpf) was “moderate or severe dorsalization in nearly all embryos examined”, the “% Mild” value ([2]; DM 0.2 μM from 3 hpf) was 0% and the “% Moderate-Severe” value ([2]; DM 0.2 μM from 3 hpf) was 0%. The “Mild, number of embryos” value ([2]; DM 0.2 μM from 3 hpf) was 0, the “Moderate-Severe, number of embryos” value ([2]; DM 0.2 μM from 3 hpf) was 0 and the “Normal, number of embryos” value ([2]; DM 0.2 μM from 3 hpf) was 60. For the same molecule, the “Total % Dorsalized” value ([2]; DM 0.2 μM from 3 hpf) was 0%, the “% Mild” value ([2]; DM 0.5 μM from 3 hpf) was 0% and the “% Moderate-Severe” value ([2]; DM 0.5 μM from 3 hpf) was 0%. The “Mild, number of embryos” value ([2]; DM 0.5 μM from 3 hpf) was 0, the “Moderate-Severe, number of embryos” value ([2]; DM 0.5 μM from 3 hpf) was 0 and the “Normal, number of embryos” value ([2]; DM 0.5 μM from 3 hpf) was 59. For the same molecule, the “Total % Dorsalized” value ([2]; DM 0.5 μM from 3 hpf) was 0%, the “% Mild” value ([2]; DM 1 μM from 3 hpf) was 0% and the “% Moderate-Severe” value ([2]; DM 1 μM from 3 hpf) was 0%. The “Mild, number of embryos” value ([2]; DM 1 μM from 3 hpf) was 0, the “Moderate-Severe, number of embryos” value ([2]; DM 1 μM from 3 hpf) was 0 and the “Normal, number of embryos” value ([2]; DM 1 μM from 3 hpf) was 60. For the same molecule, the “Total % Dorsalized” value ([2]; DM 1 μM from 3 hpf) was 0%, the “% Mild” value ([2]; DM 2 μM from 3 hpf) was 0% and the “% Moderate-Severe” value ([2]; DM 2 μM from 3 hpf) was 0%. For the same molecule, the “Mild, number of embryos” value ([2]; DM 2 μM from 3 hpf) was 0, the “Normal, number of embryos” value ([2]; DM 2 μM from 3 hpf) was 60 and the “Total % Dorsalized” value ([2]; DM 2 μM from 3 hpf) was 0%. The “% Mild” value ([2]; DM 5 μM from 3 hpf) was 19%, the “% Moderate-Severe” value ([2]; DM 5 μM from 3 hpf) was 0% and the “Mild, number of embryos” value ([2]; DM 5 μM from 3 hpf) was 11. The “Moderate-Severe, number of embryos” value ([2]; DM 5 μM from 3 hpf) was 0, the “Normal, number of embryos” value ([2]; DM 5 μM from 3 hpf) was 48 and the “Total % Dorsalized” value ([2]; DM 5 μM from 3 hpf) was 19%. The “% Mild” value ([2]; DM 7.5 μM from 3 hpf) was 58%, the “% Moderate-Severe” value ([2]; DM 7.5 μM from 3 hpf) was 42% and the “Mild, number of embryos” value ([2]; DM 7.5 μM from 3 hpf) was 35. The “Moderate-Severe, number of embryos” value ([2]; DM 7.5 μM from 3 hpf) was 25, the “Normal, number of embryos” value ([2]; DM 7.5 μM from 3 hpf) was 0 and the “Total % Dorsalized” value ([2]; DM 7.5 μM from 3 hpf) was 100%. The “% Mild” value ([2]; DM 10 μM from 3 hpf) was 3%, the “% Moderate-Severe” value ([2]; DM 10 μM from 3 hpf) was 98% and the “Mild, number of embryos” value ([2]; DM 10 μM from 3 hpf) was 1. For the same molecule, the “Moderate-Severe, number of embryos” value ([2]; DM 10 μM from 3 hpf) was 39, the “Normal, number of embryos” value ([2]; DM 10 μM from 3 hpf) was 0 and the “Total % Dorsalized” value ([2]; DM 10 μM from 3 hpf) was 100%. For the same molecule, the “% Dorsalized” value [2, 15] was 100%, the “Dorsalized, number of embryos” value [2, 15] was 26 and the “Early lethality, number of embryos” value [2, 15] was 3. The Total survivors [2, 15] was 26, the dorsalization and toxicity ([2]; same conditions as C75 (3 hpf)) was “induced dorsalization with high penetrance and minimal toxicity” and the dorsalization phenotype ([2]; ≦2 μM from 3 hpf) was “did not elicit dorsalization”. The “cyclopia (phenotype of defective TGF-β signaling)” value ([2]; ≧5 μM at ≦8 hpf) was “did not result in cyclopia” and the IC50 [3] was 15 to 30 µM.
